Laboratory results from patent US12589087B2, “Enantiomer selective action on neurotransmission” (The Board of Trustees of the Leland Stanford Junior …, priority 2021, dated 2026).

Assays:
human glutaminase GLS1 = biological target: T1, human glutaminase GLS1 (Homo sapiens, UniProt O94925); assay: Catalysis of 2MeGln hydrolysis by GLS1 glutaminase; assay type: biochemical; details: 10 mM substrate
T1 construct: purchased Sigma SRP0516
T1 sequence (O94925 55-669): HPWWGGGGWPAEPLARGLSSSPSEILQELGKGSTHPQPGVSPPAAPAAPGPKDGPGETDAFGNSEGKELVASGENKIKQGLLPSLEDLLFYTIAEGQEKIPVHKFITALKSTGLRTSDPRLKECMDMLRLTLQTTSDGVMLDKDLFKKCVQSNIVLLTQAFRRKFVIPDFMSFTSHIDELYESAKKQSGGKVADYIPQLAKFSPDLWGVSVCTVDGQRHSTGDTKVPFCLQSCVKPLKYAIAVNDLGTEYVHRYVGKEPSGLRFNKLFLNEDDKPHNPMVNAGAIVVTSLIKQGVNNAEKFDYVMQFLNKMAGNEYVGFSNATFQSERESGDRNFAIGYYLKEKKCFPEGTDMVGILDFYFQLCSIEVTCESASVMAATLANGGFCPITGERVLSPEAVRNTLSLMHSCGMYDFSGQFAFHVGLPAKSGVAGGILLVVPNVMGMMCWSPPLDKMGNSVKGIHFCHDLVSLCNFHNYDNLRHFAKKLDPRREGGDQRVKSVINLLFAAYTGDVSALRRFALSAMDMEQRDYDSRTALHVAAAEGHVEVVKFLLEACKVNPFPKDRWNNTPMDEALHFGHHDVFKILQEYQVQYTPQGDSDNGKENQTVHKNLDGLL
Experimental: The procedure was adapted from an existing protocol. To a reaction mixture in a 1.5 mL microcentrifuge tube containing 10 mM rac-2MeGln or L-Gln-^13C2 in 100 mM phosphate pH 7.4 buffer made in 20% atom ^18O water, recombinant GLS1 (final concentration: 5 ng/mL) was added. The tubes were incubated in a preheated thermomixer at 37° C. and periodically shaken at 600 rpm (30 s on, 30 s off). 5 μL aliquots were collected in triplicate every 5 min and immediately diluted with 195 μL of cold 60% ACN containing 10 μM Glu-d5 and Gln-d5 as internal standards in a 96 well plate. After collecting all samples, the plate was shaken at 1000 rpm for 5 min at room temperature, and then stored at −80° C. Before analysis the plate was thawed and 10 μL aliquots of the extracted reaction mixtures were diluted with 190 μL of 90% acetonitrile.
The quantification of the newly formed 2MeGlu in the presence of the preexisting trace amounts was performed in the following way. Peak area ratio of Glu-^13C2 to Glu-^13C2^18O was calculated in all samples containing Glu-^13C2. The mean ratio value was then applied to calculate the hypothetical peak area of the newly formed 2MeGlu based on the directly measured 2MeGlu-^18O peak area. The ratio of the newly formed 2MeGlu peak area and the total 2MeGlu peak area was applied to calculate the concentration of the newly formed 2MeGlu from the total 2MeGlu concentration determined directly using the calibration curve.

Line 61 mice = assay: Transgenic α-synuclein mouse model, tapered beam test; assay type: in vivo
Excerpt: Line 61 mice overexpress human α-synuclein under control of the mouse Thy-1 promoter. The transgene is X-linked so females have variable transgene expression; for this reason, we focused on male mice. […] Categorical data from the tapered beam task were unblinded and analyzed by X square test (P<0.005).

SMILES	apparent GLS1 reaction rate, lower compared to that of Gln (human glutaminase GLS1)	apparent reaction rate of GLS1 hydrolysis (human glutaminase GLS1; 5 ng/mL enzyme, phosphate pH 7.4) [µM/min]	body weight or deaths (Line 61 mice; 5 or 50 mg/kg/d IP, seven days)	motor function, tapered beam (Line 61 mice; 7 days IP, high dose (50 mg/kg/d) S-2MeGlu, either dose (5 or 50 mg/kg/d) R-4APA)	α-synuclein accumulation in brain by immunohistochemistry vs vehicle (Line 61 mice; Line 61 mice)
CC(N)(CCC(N)=O)C(=O)O (racemic) [rac-2MeGln, rac-2-methylglutamine]	approximately 35 fold	1.9			
C[C@](N)(CCC(=O)O)C(=O)O [(S)-2MeGlu, (S)-2-methylglutamic acid]			no change in body weight or deaths	improved motor function similar to WT mice	no significant change
